Tests used:
mouse AhR = experiment: Competitive binding by velocity sedimentation on sucrose density gradients; settings: Hepa cytosol, 2 h, room temperature
Description: Mouse hepatoma cells, Hepa1c1c7 (Hepa), and BP^rCl cells were maintained in modified Eagle's medium (Sigma) supplemented with 10% heat-inactivated fetal bovine serum, sodium pyruvate, L-glutamine, sodium bicarbonate, and Gentamicin (MEM+), at 37° C. in a humid atmosphere with 5% CO2. BP^rCl cells are a derivative of Hepa1c1c7 cells that lack ARNT protein expression and function (Probst et al., Mol. Pharmacol. 44:511-518 (1993), which is hereby incorporated by reference in its entirety). Upon reaching 90% confluency, cells were harvested and homogenized in HEDG buffer (25 mM HEPES, 1.5 mM Na2EDTA, 1 mM dithiothreitol, 10% (v/v) glycerol, pH 7.6) containing protease inhibitors (Roche Applied Science complete mini cocktail tablet, Indianapolis, Ind.). Both Hepa and BP^rC1 cytosols were prepared by centrifugation of the homogenate at 100,000 g for 45 min.
(§1) Competitive binding of EGCG was analyzed by velocity sedimentation on sucrose gradients in a vertical tube rotor (Tsui et al., Can. J. Physiol. Pharmacol 59:927-931 (1981); Jensen et al., Toxicol. Sci. 64:41-56 (2001), which are hereby incorporated by reference in their entirety). Hepa cytosol (100 μl of 2.5 mg/ml) or BP^rCl cytosol was incubated for two hours at room temperature with either 3 nM ^3H-TCDD, 0.5 nM ^3H-TCDD, or 5 nM ^3H-BNF, in the presence of DMSO, 150-fold excess TCDF, 1 μM 3M4NF, or EGCG. Cytosols were washed with charcoal-dextran (1 mg charcoal/mg protein) in HEDG, and applied to a 10-30% (w/v) sucrose gradient in Beckman Quick-Seal centrifuge tubes (Beckman, Palo Alto, Calif.). [Methyl-^14C]-BSA was used as an internal sedimentation marker. The gradients were centrifuged for 2 h at 372,000×g in a Beckman VTI-80 rotor. Fractions were collected from the top at a rate of 1 ml/min, 0.2 ml/fraction. For competitive binding assays, fractions were assayed for radioactivity with ScintiVerse (Fisher Scientific, Fair Lawn, N.J.). […] For AhR and hsp90 density analysis, protein contained within an aliquot (200 of each fraction was separated by SDS-PAGE (7.5% acrylamide resolving gel) and transferred to PVDF membranes. Membranes were probed with antibodies recognizing AhR (Biomol) or hsp90 (Stressgen, Victoria, BC Canada). A crude estimate of the sedimentation coefficient for the EGCG shifted AhR complex was calculated by the method of Martin and Ames (Martin et al., J. Biol. Chem. 236:1372-1379 (1961), which is hereby incorporated by reference in its entirety) relative to the ^14C-BSA (4.4S) standard.

hsp90 = experiment: Sucrose density gradient sedimentation of hsp90 in Hepa cytosol; type: biochemical, mouse; settings: 2 h, 200 μM EGCG or 10 nM TCDD
Description: as §1, with “Cytosols were washed with charcoal-dextran (1 mg charcoal/mg protein) in HEDG, and applied to a 10-30% (w/v) sucrose gradient in Beckman Quick-Seal centrifuge tubes (Beckman, Palo Alto, Calif.). [Methyl-^14C]-BSA was used as an internal sedimentation marker. The gradients were centrifuged for 2 h at 372,000×g in a Beckman VTI-80 rotor. Fractions were collected from the top at a rate of 1 ml/min, 0.2 ml/fraction.” left out

AhR [1] = experiment: AhR protein levels by western blotting in Hepa cells; type: cell-based, mouse; settings: over 12 hours, EGCG 200 μM or TCDD 150 pM
Description: Hepa cells were plated onto 6-well plates at a density of 5×10^5 cells/well and incubated overnight at 37° C. […] Cells were lysed (0.2% Triton, 5 mM EDTA in PBS) and total protein quantified using the Coomassie Plus Protein Assay Reagent (Pierce, Rockford, Ill.). Protein (30 μg) was separated by SDS-PAGE (7.5% acrylamide resolving gel) and transferred to PVDF membrane (Millipore, Bedford, Mass.). Membranes were probed with antibodies recognizing CYP1A1 (Xenotech, Lenexa, Kans.), AhR (Biomol, Plymouth Meeting, Pa.) and actin (Sigma). The secondary IgG antibodies were coupled to horseradish peroxidase (Jackson Immuno Research, West Grove, Pa.). Both primary and secondary antibodies were used at a dilution of 1:5000 in TBST (50 mM Tris, 300 mM NaCl, 0.5% Tween 20, pH 7.5) containing 5% milk. Proteins were visualized by chemiluminescence (KPL, Gaithersburg, Md.).

AhR [2] = experiment: Immunocytochemistry of AhR subcellular localization in Hepa cells; type: cell-based, mouse; settings: 1 h, EGCG 200 μM or TCDD 150 pM
Description: Hepa cells were plated onto four-well chamber slides (Becton Dickinson, Bedford, Mass.) at a density of 2.0×10^4 and incubated overnight. Cells were treated with either vehicle (DMSO), TCDD (150 pM), EGCG alone (200 μM), or EGCG in the presence of TCDD (150 pM) for 1 h. Cells were fixed with 3.7% formalin at room temperature for 10 minutes, followed by a four minute incubation in anhydrous methanol at 4° C. All antibodies were filtered through a 0.45 micron filter before staining Cells were blocked for one hour in phosphate buffered saline containing 4% BSA, incubated with anti-AhR at a 1:2000 dilution for two hours at room temperature, followed by a one hour incubation with 1:1000 anti-rabbit Alexa-Fluor conjugated secondary antibody (Molecular Probes, Eugene Oreg.). Nuclei were stained with DAPI (0.5 μg/ml) (Molecular Probes) for three minutes at room temperature. Slides were mounted with 50% glycerol and coverslipped. AhR staining and nuclear staining were visualized using a Nikon Eclipse TS110 fluorescent microscope (40× magnification). Fluorescent images were captured using SPOT advanced software.

## COc1cc(-c2cc(=O)c3ccccc3o2)ccc1[N+](=O)[O-] [3M4NF, 3′-methoxy-4′ nitroflavone, reference compound]
Mouse AhR; 3 nM 3H-TCDD
  competition with 3H-TCDD for specific binding to the AhR (9S peak): inhibited the formation of this ^3H-TCDD peak

## O=c1cc(-c2cccc([N+](=O)[O-])c2)oc2ccccc12 [3′-nitroflavone, reference compound]
Mouse AhR; 5 nM 3H-BNF
  competition with 3H-BNF for binding to the AhR: very efficiently competed with BNF binding

## Clc1cc2c(cc1Cl)Oc1cc(Cl)c(Cl)cc1O2 [TCDD, 2,3,7,8-tetrachlorodibenzo-p-dioxin, reference compound]
hsp90
  effect on the sedimentation pattern of hsp90: did not appear to influence this sedimentation pattern
AhR [1]
  AhR protein levels, treatment alone: decline rapidly
AhR [2]
  subcellular localization of the AhR, treatment alone: redistribution of the AhR from the cytosol to the nucleus
